Data: patent US8722338B2, “Modulation of ABCG2-mediated urate transport to treat hyperuricemia and gout” (The Johns Hopkins University, priority 2009, dated 2014)
“Also recorded” adds a separate entry of the source.

How the values were obtained:
[1] = molecular target: T1, endogenous ABCG2 (Sus scrofa, UniProt Q8MIB3); test: Urate accumulation in native LLC-PK1 renal proximal tubule cells; assay type: cell-based, porcine; conditions: 5 μM FTC; 120 min; polarized LLC-PK1 cells; 500 μM cold urate and 25 μM hot urate
T1 construct: endogenous in cells; host or cells: LLC-PK1 porcine renal epithelial cells
T1 sequence (Q8MIB3 1-656): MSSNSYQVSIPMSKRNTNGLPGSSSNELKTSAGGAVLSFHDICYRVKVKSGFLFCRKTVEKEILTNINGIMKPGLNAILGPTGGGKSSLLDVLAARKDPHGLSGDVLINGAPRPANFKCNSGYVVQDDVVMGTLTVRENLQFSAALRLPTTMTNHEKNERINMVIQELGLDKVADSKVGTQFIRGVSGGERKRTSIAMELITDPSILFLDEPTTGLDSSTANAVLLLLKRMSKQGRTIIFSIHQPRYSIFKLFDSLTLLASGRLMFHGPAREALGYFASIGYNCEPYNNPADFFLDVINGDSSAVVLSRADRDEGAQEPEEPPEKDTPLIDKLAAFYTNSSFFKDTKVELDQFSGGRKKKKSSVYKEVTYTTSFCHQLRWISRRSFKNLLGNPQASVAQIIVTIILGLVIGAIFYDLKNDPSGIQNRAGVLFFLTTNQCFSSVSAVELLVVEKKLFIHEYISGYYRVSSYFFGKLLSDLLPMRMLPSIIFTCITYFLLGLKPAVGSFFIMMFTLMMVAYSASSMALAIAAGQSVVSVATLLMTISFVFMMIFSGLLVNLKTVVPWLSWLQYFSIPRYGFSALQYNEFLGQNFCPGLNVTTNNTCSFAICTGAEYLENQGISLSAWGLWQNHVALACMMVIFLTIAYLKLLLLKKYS
Procedure: LLC-PK1 porcine renal epithelial cells were cultured in Dulbecco's Modified Eagle medium (DMEM) supplemented with 10% FBS. LLC-PK1 cells were seeded at a high density into a 6-well plate and accumulation experiments were performed after the cells polarized. The cells were incubated in DMEM containing 500 μM cold urate and 25 μM hot urate with or without 5 μM FTC (US Biologicals); the incubation lasted 120 min. The cells were then washed four times with ice-cold DMEM and lysed with 500 μL of 1M NaOH. The lysate was collected and placed in a scintillation tubule along with 5 mL scintillation fluid and counted.

[2] = molecular target: human ABCG2 (Homo sapiens, UniProt Q9UNQ0); conditions: 5 μM FTC; oocytes injected with ABCG2 WT mRNA; C-14 urate
Chain of human ABCG2 (Q9UNQ0 whole entry): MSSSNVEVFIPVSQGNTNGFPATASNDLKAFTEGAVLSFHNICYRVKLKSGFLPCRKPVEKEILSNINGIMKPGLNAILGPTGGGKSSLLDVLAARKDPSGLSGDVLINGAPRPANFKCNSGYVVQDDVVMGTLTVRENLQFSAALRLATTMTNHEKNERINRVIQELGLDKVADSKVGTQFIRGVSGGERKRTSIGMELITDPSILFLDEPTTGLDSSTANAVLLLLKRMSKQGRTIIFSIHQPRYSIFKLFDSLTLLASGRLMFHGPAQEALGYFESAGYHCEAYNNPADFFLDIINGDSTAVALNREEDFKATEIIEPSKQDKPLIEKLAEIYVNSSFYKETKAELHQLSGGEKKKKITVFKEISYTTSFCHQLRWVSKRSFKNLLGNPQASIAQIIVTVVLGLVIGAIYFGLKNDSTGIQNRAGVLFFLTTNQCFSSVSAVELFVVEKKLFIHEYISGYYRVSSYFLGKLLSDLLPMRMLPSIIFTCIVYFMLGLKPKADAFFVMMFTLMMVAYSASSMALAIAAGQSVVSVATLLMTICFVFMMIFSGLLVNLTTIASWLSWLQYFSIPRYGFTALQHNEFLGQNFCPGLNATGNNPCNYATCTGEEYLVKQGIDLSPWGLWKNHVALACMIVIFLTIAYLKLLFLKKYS
Procedure: Oocytes were removed from female pigmented Xenopus laevis (Xenopus 1 Inc.) and de-folliculated using collagenase A (Roche) in Ca^2+-free OR-2 ringer solution. Stage V-VI oocytes were selected and injected (Nanoinject II, Drummond Scientific) with 50 nL of either mRNA or H2O (as a control). All experiments were performed on the fourth day after injection. Oocytes after injection were cultured in a modified L-15 media (OR-3) and kept at 15-20° C. mRNA was prepared using the SP6 mMessage mMachine (Ambion Inc.) according to the manufactures protocol.
Radiolabeled C-14 uric acid (American Radio-labeled Chemicals) was dissolved in a stock solution of 2 mM NaOH with a final urate concentration of 2 mM (either 2 mM hot-radio labeled urate or 1 mM hot and 1 mM cold urate). For oocyte transport experiments, the radio labeled C-14 urate was included at various concentrations in ND96 ringers solution (in mM: 96 NaCl, 2 KCl, 2 MgCl2, 5 Hepes, 1.8 CaCl2, pH 7.5, and 5 mM glucose for overnight incubation experiments).
For accumulation studies, oocytes were incubated either for 1 or 2 h at room temperature in 50 μM C-14 urate or overnight in 500 μM C-14 urate at 15° C. After incubation the oocytes were washed in ice-cold ND96 solution 3-5 times to remove any superficial, residual C-14 urate from the oocytes. Oocytes were then pooled for scintillation counting. […]

COc1ccc2c3c([nH]c2c1)[C@H](C=C(C)C)N1C(=O)[C@@H]2CCCN2C(=O)[C@@H]1C3 [FTC, fumitremorgin C]
urate export / intracellular urate accumulation compared with non-treated control cells [1]: inhibits urate export; also recorded: significantly higher intracellular urate accumulation | reduced urate accumulation in ABCG2-expressing oocytes in the presence of inhibitor [2]: absent
